Laboratory results as given in patent US20180200257A1, “METHODS FOR THE TREATMENT OF INFLAMMATORY DISORDERS” (Galapagos NV, priority 2015, published 2018).

Tested on: subjects with moderately to severely active RA who have an inadequate response to methotrexate (MTX)
Experiment: Study 2 (monotherapy) - DAS28(CRP) scores
Format: in vivo, human
Source text: Randomized, double-blind, placebo-controlled, multicenter, phase IIb dose finding study of Compound 1 (dosed as a [Compound 1:HCl:3H2O]) administered for 24 weeks as monotherapy to subjects with moderately to severely active rheumatoid arthritis who have an inadequate response to methotrexate alone
Double-blind, placebo-controlled, monotherapy study in subjects with moderately to severely active RA who have an inadequate response to methotrexate (MTX) (oral or parenteral).
280 subjects randomized to one of 3 doses of Compound 1 (dosed as a [Compound 1:HCl:3H2O]) or to placebo, given once daily (q.d.).
Twelve weeks of treatment with Compound 1 (dosed as a [Compound 1:HCl:3H2O]) at 50 mg, 100 mg, or 200 mg q.d.; or placebo. At Week 12, all subjects on placebo and the subjects on the 50 mg dose who have not achieved 20% improvement in swollen joint count (SJC66) and tender joint count (TJC68) will be assigned to 100 mg q.d. in a blinded fashion and will continue treatment until Week 24. Subjects in the other groups will maintain their randomized treatment until Week 24.
The (DAS28(CRP)) is a system developed and validated by the European League Against Rheumatism (EULAR) to measure the progress and improvement of rheumatoid arthritis and has been extensively validated (Wells et al., 2008). The DAS28(CRP) scoring includes a 28 tender and swollen joint count, CRP measurement from blood analysis, and a general health assessment on a visual analog scale (Fransen et al., 2003).
DAS28(CRP) values range from 2.0 to 10.0, and more particularly reflect the following status: • Remission: DAS28(CRP) ≤2.6 • Low Disease activity: 2.6 <DAS28(CRP) ≤3.2 • Moderate Disease Activity: 3.2 <DAS28(CRP) ≤5.1 • High Disease Activity: DAS28(CRP) >5.1
In practice, the DAS28(CRP) measurement involves the evaluation 28 different joints including in the measurement (proximal interphalangeal joints (10 joints), metacarpophalangeal joints (10), wrists (2), elbows (2), shoulders (2), and knees (2)). When looking at these joints, both the number of joints with tenderness upon touching and swelling are counted.
Secondly, C-reactive protein level is measured.
Finally, the patient makes a subjective assessment of disease activity during the preceding 7 days on a scale between 0 and 100, where 0 is “no activity” and 100 is “highest activity possible”.
The DAS28(CRP) score is then calculated as follows:
Firstly, the patient is asked to make a vertical mark on a 100 mm Visual Analog Scale (VAS) corresponding to their general health or global disease activity on a touch screen to measure the VAS value, which is used in the formula below.
Secondly, a swollen and tender joint examination is then performed on the patient. The swollen and tender joints are recorded. From this examination are obtained the total amount of swollen joints (SJC) and the total amount of tender joints (TJC), which are used in the formula below.
Thirdly, C-reactive protein (CRP) levels are measured.
Finally, the values obtained above (VAS, TJC28, SJC28, and CRP) are computed into the following Formula to obtain the DAS28(CRP) score.
DAS28(CRP)=0.56*√{square root over (TJC28)}+0.28√{square root over (SJC28)}+[…] ln(CRP+1)+0.014*VAS
The improvement (decreases) in the DAS28(CRP) scores for each patient group at weeks 1, 2, 4, 8 and 12 is shown in Table LXXXVII and Table LXXXVIII below, together with the Hommel-corrected p-value for the pairwise comparisons of each group with placebo.
The number of subjects (N) provided in each groups corresponds to the number of subjects starting the study in each group, and the DAS28 (CRP) data reported below corresponds to the responding subjects continuing for the entire 24 weeks on their initial treatment course.

O=C(Nc1nc2cccc(-c3ccc(CN4CCS(=O)(=O)CC4)cc3)n2n1)C1CC1 [Compound 1, cyclopropanecarboxylic acid {5-[4-(1,1-dioxo-thiomorpholin-4-ylmethyl)-phenyl]-[1,2,4]triazolo[1,5-a]pyridin-2-yl}-amide]
DAS28(CRP) mean CFB (LOCF) (50 mg q.d., week 1, 12 weeks results): −0.70
DAS28(CRP) mean CFB (LOCF) (50 mg q.d., week 2, 12 weeks results): −0.97
DAS28(CRP) mean CFB (LOCF) (50 mg q.d., week 2, 24 weeks results): −1.03
DAS28(CRP) mean CFB (LOCF) (50 mg q.d., week 4, 12 weeks results): −1.37
DAS28(CRP) mean CFB (LOCF) (50 mg q.d., week 4, 24 weeks results): −1.43
DAS28(CRP) mean CFB (LOCF) (50 mg q.d., week 12, 12 weeks results): −1.69
% patients reaching low disease activity and/or remission at week 12 (LOCF) (50 mg q.d., 12 weeks results): 24%
% patients reaching low disease activity at week 12 (LOCF) (50 mg q.d., 12 weeks results): 13%
% patients reaching remission at week 12 (LOCF) (50 mg q.d., 12 weeks results): 11%
% patients reaching low disease activity and/or remission at week 24 (LOCF) (50 mg q.d., 24 weeks results): 36%
% patients reaching low disease activity at week 24 (LOCF) (50 mg q.d., 24 weeks results): 17%
% patients reaching remission at week 24 (LOCF) (50 mg q.d., 24 weeks results): 19%
DAS28(CRP) mean CFB (LOCF) (50 mg q.d., week 8, 12 weeks results): −1.65
DAS28(CRP) mean CFB (LOCF) (50 mg q.d., week 8, 24 weeks results): −1.71
DAS28(CRP) mean CFB (LOCF) (100 mg q.d., week 1, 12 weeks results): −0.88
DAS28(CRP) mean CFB (LOCF) (100 mg q.d., week 2, 12 weeks results): −1.04
DAS28(CRP) mean CFB (LOCF) (100 mg q.d., week 2, 24 weeks results): −1.04
DAS28(CRP) mean CFB (LOCF) (100 mg q.d., week 4, 12 weeks results): −1.50
DAS28(CRP) mean CFB (LOCF) (100 mg q.d., week 4, 24 weeks results): −1.48
DAS28(CRP) mean CFB (LOCF) (100 mg q.d., week 12, 12 weeks results): −2.04
% patients reaching low disease activity and/or remission at week 12 (LOCF) (100 mg q.d., 12 weeks results): 28%
% patients reaching low disease activity at week 12 (LOCF) (100 mg q.d., 12 weeks results): 13%
% patients reaching remission at week 12 (LOCF) (100 mg q.d., 12 weeks results): 14%
% patients reaching low disease activity and/or remission at week 24 (LOCF) (100 mg q.d., 24 weeks results): 50%
% patients reaching low disease activity at week 24 (LOCF) (100 mg q.d., 24 weeks results): 29%
% patients reaching remission at week 24 (LOCF) (100 mg q.d., 24 weeks results): 21%
DAS28(CRP) mean CFB (LOCF) (100 mg q.d., week 8, 12 weeks results): −1.91
DAS28(CRP) mean CFB (LOCF) (200 mg q.d., week 1, 12 weeks results): −1.15
DAS28(CRP) mean CFB (LOCF) (200 mg q.d., week 2, 12 weeks results): −1.54
DAS28(CRP) mean CFB (LOCF) (200 mg q.d., week 2, 24 weeks results): −1.55
DAS28(CRP) mean CFB (LOCF) (200 mg q.d., week 4, 12 weeks results): −1.87
DAS28(CRP) mean CFB (LOCF) (200 mg q.d., week 4, 24 weeks results): −1.87
DAS28(CRP) mean CFB (LOCF) (200 mg q.d., week 12, 12 weeks results): −2.33
% patients reaching low disease activity and/or remission at week 12 (LOCF) (200 mg q.d., 12 weeks results): 45%
% patients reaching low disease activity at week 12 (LOCF) (200 mg q.d., 12 weeks results): 28%
% patients reaching remission at week 12 (LOCF) (200 mg q.d., 12 weeks results): 17%
% patients reaching low disease activity and/or remission at week 24 (LOCF) (200 mg q.d., 24 weeks results): 46%
% patients reaching low disease activity at week 24 (LOCF) (200 mg q.d., 24 weeks results): 19%
% patients reaching remission at week 24 (LOCF) (200 mg q.d., 24 weeks results): 28%
DAS28(CRP) mean CFB (LOCF) (200 mg q.d., week 8, 12 weeks results): −2.24
